In assay [1] the target is Peroxisome proliferator-activated receptor gamma/Nuclear receptor coactivator 1 (Homo sapiens, UniProt P37231). The experiment in a line: TR-FRET dose response biochemical High Throughput Screening assay for agonists of the steroid receptor coactivator 1 (SRC-1) recruitment by the peroxisome proliferator-activated receptor gamma (PPAR gamma): non-selective agonists. [Related pubchem assays (depositor defined):AID1300, AID1808, AID504735, AID631]. The class given is protein assay. (TR-FRET usually uses a lanthanide donor and a delayed reading to cut background.)
Chain of Peroxisome proliferator-activated receptor gamma/Nuclear receptor coactivator 1 (P37231 whole entry): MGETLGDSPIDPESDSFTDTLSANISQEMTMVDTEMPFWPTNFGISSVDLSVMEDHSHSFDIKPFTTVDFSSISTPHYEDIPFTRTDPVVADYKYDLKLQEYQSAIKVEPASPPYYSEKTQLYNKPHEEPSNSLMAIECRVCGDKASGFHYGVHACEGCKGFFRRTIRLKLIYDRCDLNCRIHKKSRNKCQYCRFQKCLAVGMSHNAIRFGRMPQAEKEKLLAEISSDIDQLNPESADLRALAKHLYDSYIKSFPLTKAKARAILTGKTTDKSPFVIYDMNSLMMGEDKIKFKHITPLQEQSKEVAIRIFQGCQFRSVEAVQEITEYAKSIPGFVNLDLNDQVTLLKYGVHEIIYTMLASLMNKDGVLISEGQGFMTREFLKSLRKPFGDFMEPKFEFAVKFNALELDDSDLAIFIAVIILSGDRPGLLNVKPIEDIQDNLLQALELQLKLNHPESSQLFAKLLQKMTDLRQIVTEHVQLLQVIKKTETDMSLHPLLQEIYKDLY
Chain of Peroxisome proliferator-activated receptor gamma/Nuclear receptor coactivator 1 (Q15788 whole entry, further chain): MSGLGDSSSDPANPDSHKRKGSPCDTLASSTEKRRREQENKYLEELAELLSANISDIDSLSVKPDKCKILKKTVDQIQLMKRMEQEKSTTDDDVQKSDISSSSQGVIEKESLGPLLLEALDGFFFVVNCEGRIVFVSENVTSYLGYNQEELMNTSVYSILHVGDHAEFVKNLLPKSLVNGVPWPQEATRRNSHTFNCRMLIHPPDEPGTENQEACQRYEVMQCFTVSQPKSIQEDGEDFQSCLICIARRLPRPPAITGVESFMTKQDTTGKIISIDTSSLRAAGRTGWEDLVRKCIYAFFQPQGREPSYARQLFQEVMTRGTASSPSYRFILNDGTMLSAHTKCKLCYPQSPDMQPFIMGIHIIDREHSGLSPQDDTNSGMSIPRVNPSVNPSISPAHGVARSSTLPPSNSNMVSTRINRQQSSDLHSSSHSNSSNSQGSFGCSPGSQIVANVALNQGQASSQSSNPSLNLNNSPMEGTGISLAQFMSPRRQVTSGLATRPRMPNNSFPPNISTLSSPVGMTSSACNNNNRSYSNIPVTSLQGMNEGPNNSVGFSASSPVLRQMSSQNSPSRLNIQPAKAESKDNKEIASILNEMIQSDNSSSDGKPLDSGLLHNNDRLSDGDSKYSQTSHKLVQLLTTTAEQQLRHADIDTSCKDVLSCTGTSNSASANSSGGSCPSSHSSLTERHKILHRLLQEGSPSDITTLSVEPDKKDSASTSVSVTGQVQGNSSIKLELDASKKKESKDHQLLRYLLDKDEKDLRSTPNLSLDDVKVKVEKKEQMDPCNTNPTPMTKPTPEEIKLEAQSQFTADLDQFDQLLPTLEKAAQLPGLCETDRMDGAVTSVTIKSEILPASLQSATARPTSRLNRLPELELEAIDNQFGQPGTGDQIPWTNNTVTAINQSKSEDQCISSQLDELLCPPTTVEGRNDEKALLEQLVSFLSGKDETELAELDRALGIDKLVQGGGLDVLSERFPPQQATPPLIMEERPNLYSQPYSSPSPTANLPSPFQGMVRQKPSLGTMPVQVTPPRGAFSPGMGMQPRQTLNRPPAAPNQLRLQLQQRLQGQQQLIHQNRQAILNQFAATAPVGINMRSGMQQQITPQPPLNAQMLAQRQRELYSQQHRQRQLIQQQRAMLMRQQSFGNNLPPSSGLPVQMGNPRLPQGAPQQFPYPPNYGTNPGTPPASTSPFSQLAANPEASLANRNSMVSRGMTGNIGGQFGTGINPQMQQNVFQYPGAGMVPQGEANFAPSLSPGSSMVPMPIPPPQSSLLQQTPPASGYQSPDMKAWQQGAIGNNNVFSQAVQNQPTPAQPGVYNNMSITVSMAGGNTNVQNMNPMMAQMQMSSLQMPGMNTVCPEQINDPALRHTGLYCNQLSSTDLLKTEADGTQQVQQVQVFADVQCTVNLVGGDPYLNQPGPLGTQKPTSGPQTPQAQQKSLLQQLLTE

For assay [2], the target named is Peroxisome proliferator-activated receptor gamma/Nuclear receptor coactivator 3 (Homo sapiens, UniProt P37231). The experiment in a line: TR-FRET dose response biochemical High Throughput Screening assay for agonists of the steroid receptor coactivator 3 (SRC-3) recruitment by the peroxisome proliferator-activated receptor gamma (PPAR gamma): non-selective agonists. [Related pubchem assays: 1301 (Confirmation screen.), 1048 (Primary screen.)]. The class given is functional.

Assay [3] addresses Peroxisome proliferator-activated receptor gamma/Nuclear receptor coactivator 2 (Homo sapiens, UniProt P37231). The experiment in a line: TR-FRET dose response biochemical High Throughput Screening assay for agonists of the steroid receptor coactivator 2 (SRC-2) recruitment by the peroxisome proliferator-activated receptor gamma (PPAR gamma): non-selective agonists. [Related pubchem assays: 1297, 1032 ]. The class given is functional.

The test system of the next assay is HeLa. The experiment in a line: ATP-based viability loss in HeLa cells – cell-based, CellTiter-Glo luminescence, cherry-pick samples, cytotoxicity control for MITF activator project, dose response (AID 540259). The class given is functional. Conditions: Homo sapiens. For orientation: Cellular ATP, detected with luciferase, serves as a proxy for viable cell number.

The nature of assay [4]: viability of uninfected HEp-2 cells – cell-based, HTS, cytotoxicity control for RSV inhibitor project, dose response (AID 2410). The class given is functional. Conditions: human respiratory syncytial virus.
The next assay deals with T1, Estrogen receptor (Homo sapiens, UniProt P03372).
T1 sequence (P03372 whole entry): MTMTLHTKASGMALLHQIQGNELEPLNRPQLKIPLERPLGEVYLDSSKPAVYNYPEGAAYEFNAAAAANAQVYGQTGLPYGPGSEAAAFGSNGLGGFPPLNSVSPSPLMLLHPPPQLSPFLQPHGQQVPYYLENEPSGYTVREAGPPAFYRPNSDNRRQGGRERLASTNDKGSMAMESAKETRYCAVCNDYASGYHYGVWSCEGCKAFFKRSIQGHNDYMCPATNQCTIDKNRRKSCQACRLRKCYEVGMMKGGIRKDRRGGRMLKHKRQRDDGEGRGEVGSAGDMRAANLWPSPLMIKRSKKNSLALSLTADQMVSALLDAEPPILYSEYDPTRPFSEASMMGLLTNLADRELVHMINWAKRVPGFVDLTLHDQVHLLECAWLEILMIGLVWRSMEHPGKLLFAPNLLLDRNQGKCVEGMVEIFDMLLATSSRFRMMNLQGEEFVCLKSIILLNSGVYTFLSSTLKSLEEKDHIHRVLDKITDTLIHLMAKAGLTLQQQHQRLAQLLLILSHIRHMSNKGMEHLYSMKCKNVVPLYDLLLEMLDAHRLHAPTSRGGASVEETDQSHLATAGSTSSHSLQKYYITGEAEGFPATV

A short description of assay [5]: cells.
A short description of assay [6]: cells. In kind it is functional.
For assay [7], the target named is T2, High affinity choline transporter 1 (Homo sapiens, UniProt Q9GZV3).
T2 sequence (Q9GZV3 whole entry): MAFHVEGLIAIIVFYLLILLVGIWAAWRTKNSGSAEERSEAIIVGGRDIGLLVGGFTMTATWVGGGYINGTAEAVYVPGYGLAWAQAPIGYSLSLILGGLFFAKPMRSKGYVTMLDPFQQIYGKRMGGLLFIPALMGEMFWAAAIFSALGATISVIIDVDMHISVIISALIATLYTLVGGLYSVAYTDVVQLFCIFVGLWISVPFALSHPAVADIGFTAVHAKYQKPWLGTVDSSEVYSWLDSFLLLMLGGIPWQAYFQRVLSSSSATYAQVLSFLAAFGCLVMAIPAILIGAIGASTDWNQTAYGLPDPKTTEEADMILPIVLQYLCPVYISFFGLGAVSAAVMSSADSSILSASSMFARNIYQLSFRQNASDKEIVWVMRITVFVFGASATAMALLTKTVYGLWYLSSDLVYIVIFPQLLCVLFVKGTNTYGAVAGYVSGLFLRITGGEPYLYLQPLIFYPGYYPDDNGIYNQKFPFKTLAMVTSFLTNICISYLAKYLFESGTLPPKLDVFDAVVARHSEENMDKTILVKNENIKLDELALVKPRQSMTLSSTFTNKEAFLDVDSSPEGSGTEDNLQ
The experiment in a line: human choline transporter blockers, potency – cell-based, 5-point CRC, membrane potential dye, dose response (AID 504840). In kind it is functional.

Assay [8] deals with T3, Fatty acid synthase (Homo sapiens, UniProt P49327). In words: inhibition of human FAS-TE enzyme activity – biochemical, kinetic fluorescence intensity, dose response (AID 624326).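 Further: rate of fluorescence rise from hydrolysis of a fluorogenic O-methyl fluorescein ester substrate.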 In kind it is functional.
The target of assay [9] is T4, Carboxy-terminal domain RNA polymerase II polypeptide A small phosphatase 1 (Homo sapiens, UniProt Q9GZU7).
T4 sequence (Q9GZU7 whole entry): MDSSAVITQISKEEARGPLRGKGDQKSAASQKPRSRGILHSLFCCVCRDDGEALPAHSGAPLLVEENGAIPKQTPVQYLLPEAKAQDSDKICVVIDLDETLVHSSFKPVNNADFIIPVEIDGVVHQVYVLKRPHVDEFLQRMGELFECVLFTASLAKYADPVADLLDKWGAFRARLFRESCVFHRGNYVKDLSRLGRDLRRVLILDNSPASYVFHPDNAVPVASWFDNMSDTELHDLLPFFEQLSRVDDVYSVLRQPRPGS
The experiment in a line: CTDSP1 inhibitors, concentration-response, biochemical, absorbance readout, ultra-high-throughput screen actives (AID 540297). The class given is functional.

Assay [10] has as its target T3, Fatty acid synthase. The experiment in a line: inhibition of human FAS-TE enzyme activity – biochemical, endpoint fluorescence intensity, uHTS hits, dose response (AID 624327).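 Further: fluorescence from hydrolysis of an O-methyl fluorescein acyl ester substrate by the enzyme.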 In kind it is functional.
Assay [11] deals with T5, Histone-lysine N-methyltransferase NSD2 (Homo sapiens, UniProt O96028).
T5 sequence (O96028 whole entry): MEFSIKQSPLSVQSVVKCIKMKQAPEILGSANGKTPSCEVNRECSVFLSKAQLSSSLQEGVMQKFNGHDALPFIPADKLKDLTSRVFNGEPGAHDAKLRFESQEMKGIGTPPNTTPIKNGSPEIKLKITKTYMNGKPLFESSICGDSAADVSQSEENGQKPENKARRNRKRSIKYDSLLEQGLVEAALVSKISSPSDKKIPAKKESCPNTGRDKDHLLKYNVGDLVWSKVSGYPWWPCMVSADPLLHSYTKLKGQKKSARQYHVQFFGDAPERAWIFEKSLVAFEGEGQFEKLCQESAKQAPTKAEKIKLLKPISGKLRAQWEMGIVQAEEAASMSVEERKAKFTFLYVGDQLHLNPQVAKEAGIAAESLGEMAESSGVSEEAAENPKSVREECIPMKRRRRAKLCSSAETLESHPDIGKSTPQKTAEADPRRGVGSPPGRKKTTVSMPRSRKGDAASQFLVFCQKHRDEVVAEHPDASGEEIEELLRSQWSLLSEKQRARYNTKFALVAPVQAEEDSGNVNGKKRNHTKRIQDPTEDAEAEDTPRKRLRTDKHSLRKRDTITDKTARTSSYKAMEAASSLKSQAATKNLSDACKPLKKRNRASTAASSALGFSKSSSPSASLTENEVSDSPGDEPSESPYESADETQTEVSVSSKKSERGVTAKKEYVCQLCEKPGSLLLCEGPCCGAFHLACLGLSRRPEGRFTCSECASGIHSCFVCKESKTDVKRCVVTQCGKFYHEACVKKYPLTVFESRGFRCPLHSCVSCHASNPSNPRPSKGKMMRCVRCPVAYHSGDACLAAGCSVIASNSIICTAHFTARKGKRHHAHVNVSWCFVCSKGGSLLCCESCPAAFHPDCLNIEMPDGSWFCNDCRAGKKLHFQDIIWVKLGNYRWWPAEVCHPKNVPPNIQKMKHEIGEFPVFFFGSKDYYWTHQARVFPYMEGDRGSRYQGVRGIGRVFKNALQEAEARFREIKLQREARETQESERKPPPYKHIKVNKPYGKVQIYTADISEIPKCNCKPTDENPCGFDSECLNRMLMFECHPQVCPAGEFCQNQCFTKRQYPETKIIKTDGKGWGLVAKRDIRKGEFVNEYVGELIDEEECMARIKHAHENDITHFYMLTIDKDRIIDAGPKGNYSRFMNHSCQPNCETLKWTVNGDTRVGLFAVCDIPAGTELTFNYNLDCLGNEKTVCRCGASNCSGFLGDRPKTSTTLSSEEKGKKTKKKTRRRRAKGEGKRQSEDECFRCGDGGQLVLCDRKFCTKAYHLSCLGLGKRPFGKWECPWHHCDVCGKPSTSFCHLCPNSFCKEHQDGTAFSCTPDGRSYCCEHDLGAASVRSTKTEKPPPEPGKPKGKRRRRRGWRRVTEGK
The class given is biochemical.

The target of assay [12] is T6, Heat shock factor protein 1 (Mus musculus, UniProt P38532).
T6 sequence (P38532 whole entry): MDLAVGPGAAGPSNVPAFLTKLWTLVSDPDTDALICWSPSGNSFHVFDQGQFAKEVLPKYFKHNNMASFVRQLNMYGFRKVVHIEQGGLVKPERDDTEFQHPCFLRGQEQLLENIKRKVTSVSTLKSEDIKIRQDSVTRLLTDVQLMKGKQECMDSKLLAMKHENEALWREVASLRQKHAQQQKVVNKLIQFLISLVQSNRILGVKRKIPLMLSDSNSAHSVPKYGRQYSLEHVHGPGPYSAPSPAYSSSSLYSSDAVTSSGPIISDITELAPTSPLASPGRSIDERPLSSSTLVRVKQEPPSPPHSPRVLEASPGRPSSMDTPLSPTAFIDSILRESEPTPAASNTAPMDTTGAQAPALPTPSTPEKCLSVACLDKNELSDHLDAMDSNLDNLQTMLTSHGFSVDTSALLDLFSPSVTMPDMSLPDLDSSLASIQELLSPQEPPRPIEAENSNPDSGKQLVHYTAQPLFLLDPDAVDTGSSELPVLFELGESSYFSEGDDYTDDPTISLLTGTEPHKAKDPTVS
The experiment in a line: decrease of HSF1-responsive luciferase luminescence – cell-based, NIH3T3, dose retest, confirmation (AID 2382).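 Further: NIH3T3 fibroblasts with HSF1-driven luciferase reporter stressed by proteasome inhibitor MG132; luminescence from HSF1-driven luciferase expression after 8 hours of MG132 stress.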 In kind it is functional.

For assay [13], the target named is Glucose-6-phosphate 1-dehydrogenase (Homo sapiens, UniProt P11413). In words: inhibition of Homo sapiens G6PD, dose series – biochemical, fluorescence, selectivity assay for P. falciparum G6PD inhibitor project, dose response (AID 504792). The class given is functional.
Chain of Glucose-6-phosphate 1-dehydrogenase (P11413 whole entry): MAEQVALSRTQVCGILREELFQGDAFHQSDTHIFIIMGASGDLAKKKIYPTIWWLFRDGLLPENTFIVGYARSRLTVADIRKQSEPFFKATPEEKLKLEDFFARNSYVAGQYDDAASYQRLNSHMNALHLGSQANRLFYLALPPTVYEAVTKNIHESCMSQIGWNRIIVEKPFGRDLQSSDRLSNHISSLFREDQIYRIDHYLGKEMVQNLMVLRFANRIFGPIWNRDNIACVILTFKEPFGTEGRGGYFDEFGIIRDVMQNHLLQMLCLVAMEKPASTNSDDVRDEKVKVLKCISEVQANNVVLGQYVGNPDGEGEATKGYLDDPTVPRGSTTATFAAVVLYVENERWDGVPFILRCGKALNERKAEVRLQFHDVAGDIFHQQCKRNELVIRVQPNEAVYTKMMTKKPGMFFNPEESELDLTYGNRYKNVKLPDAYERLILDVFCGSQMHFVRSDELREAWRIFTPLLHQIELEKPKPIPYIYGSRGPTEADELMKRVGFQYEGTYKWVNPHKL

The source made the active and inactive calls.

Chain of Peroxisome proliferator-activated receptor gamma/Nuclear receptor coactivator 2 (P37231 whole entry): as the sequence (P37231 whole entry) above
Chain of Peroxisome proliferator-activated receptor gamma/Nuclear receptor coactivator 2 (Q15596 whole entry, further chain): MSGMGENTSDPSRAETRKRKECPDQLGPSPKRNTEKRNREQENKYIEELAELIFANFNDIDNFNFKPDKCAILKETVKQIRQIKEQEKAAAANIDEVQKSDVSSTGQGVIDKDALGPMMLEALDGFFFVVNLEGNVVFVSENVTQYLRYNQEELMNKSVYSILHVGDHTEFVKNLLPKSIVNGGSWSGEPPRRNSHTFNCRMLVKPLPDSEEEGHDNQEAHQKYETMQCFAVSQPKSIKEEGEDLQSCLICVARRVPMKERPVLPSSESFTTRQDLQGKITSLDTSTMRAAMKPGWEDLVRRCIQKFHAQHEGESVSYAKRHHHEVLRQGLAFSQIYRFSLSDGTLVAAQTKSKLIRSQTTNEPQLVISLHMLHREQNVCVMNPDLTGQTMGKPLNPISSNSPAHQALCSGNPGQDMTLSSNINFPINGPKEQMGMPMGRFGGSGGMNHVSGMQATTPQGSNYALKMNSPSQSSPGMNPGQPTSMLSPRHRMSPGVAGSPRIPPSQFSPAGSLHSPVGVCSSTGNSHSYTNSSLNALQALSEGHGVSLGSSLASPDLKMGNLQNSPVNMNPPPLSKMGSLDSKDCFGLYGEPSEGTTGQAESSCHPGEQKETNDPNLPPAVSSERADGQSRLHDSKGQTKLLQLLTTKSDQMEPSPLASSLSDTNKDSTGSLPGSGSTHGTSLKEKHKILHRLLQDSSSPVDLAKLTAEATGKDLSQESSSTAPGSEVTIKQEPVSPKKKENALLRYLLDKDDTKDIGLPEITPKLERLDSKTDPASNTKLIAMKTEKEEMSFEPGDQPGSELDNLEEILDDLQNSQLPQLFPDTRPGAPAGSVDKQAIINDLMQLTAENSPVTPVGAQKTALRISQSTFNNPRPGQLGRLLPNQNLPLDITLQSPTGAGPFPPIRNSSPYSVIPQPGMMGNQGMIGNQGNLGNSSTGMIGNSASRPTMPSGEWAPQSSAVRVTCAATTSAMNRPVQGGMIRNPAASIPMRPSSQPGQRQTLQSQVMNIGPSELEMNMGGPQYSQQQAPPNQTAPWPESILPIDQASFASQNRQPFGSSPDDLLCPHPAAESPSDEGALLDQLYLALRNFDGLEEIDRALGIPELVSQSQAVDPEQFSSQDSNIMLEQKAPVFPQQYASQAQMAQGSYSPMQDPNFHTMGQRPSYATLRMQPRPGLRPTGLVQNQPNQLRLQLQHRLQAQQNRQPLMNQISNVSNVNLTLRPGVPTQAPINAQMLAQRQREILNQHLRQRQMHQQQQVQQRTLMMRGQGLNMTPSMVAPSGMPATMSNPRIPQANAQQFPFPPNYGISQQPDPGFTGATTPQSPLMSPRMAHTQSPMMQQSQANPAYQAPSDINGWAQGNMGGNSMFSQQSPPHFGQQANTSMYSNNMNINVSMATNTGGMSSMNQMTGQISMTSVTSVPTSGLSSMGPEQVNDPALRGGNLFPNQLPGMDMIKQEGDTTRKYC

For the molecule `COc1c(C)cccc1C(=O)NC(=S)Nc1cccc2nsnc12`, the figures for the EC50 in [1], in assay [2] and in [3] were 3.68 µM (active), 39.5 µM (not active) and 4.14 µM (active), respectively.

With `CC(=O)c1ccc2oc3ccccc3c(=O)c2c1`, the AC50 (commonly the concentration at which the activity in the assay is half-maximal) with HeLa was 41 µM (active).

On to `CCOc1ccc(NC(=O)CSc2ncnc3c2sc2ccccc23)cc1`, for which the EC50 (commonly the midpoint of the concentration-response curve) in assay [1] was > 79.4 µM (inactive); in assay [2] it was 81.4 µM (not active); in [3], 32 µM (not active).

As for `CN(C(=O)c1cc(-c2ccccc2)on1)C1CCCCC1`, in the assay on HeLa, the AC50 was > 350 µM (inactive).

As for `Cc1[nH]c2ccc(-c3nnc(SCC(=O)c4ccccc4F)o3)cc2c1C`, the CC50 (commonly the concentration that lowers cell viability or growth by half) in assay [4] was 32.8 µM (active). Further, the figures for the IC50 at Estrogen receptor and in “cells [5]” were 26 µM (active) and 40.7 µM (active), respectively.

For the molecule `O=C1c2ccccc2/C(=C\C#Cc2ccccn2)N1c1ccccc1`, the AC50 in the assay on HeLa was 42.6 µM (active).

As to `Cc1ccc(NCCC(=O)c2cccs2)cc1C`, in “cells [6]”, the IC50 (commonly the concentration that inhibits the measured activity by half) is 20.7 µM (active). Besides, the AC50 in the assay with HeLa was > 350 µM (inactive).

For the molecule `Cc1ccc(-n2[nH]c(C)c(/C=N/Nc3ccc([N+](=O)[O-])cc3[N+](=O)[O-])c2=O)cc1C`, the half-maximal inhibitory concentration (IC50) in [7] was 10.5 µM (active); on Fatty acid synthase [8], 32.9 µM (inactive); in assay [9], 3.32 µM (active); at Fatty acid synthase [10] it was 53.5 µM (inactive). In addition, the AC50 in [11] is 14 µM (active).

Turning to `COc1ccccc1OCCn1c(SCC(=O)O)nc2ccccc21`, in assay [9], the IC50 was 6.47 µM (active).

In the case of `CSc1cnn(Cc2ccccc2)c(=O)c1SCc1ccccc1`, the results for the 50% effective concentration (EC50) in assay [1], in assay [2] and in assay [3] were 3.27 µM (active), > 79.4 µM (not active) and 7.94 µM (active), respectively.

`COc1cccc(-c2c(C(=O)N/N=C/c3ccc(C)s3)nnn2-c2nonc2N)c1`: in assay [12], the EC50 is given as > 195 µM (not active). Further, the IC50 in assay [13] is > 80 µM (inactive).

For `CCn1c(=O)cc(SCC(=O)NCCN2CCN(Cc3ccccc3)CC2)c2ccccc21`, the EC50 in assay [1] was > 79.4 µM (inactive); in assay [2], > 79.4 µM (not active); in assay [3], > 79.4 µM (not active).

Turning to `CN1CCN(C(=S)c2ccc([N+](=O)[O-])cc2)CC1`, the IC50 in assay [13] was > 80 µM (inactive).

For `Cn1nc(-c2ccc(C(=O)Nc3ccc(F)cc3)cc2)c2ccccc2c1=O`, in assay [9], the concentration for half-maximal inhibition (IC50) was 10.4 µM (active).

Source of the values: ChEMBL document CHEMBL1201862, “PubChem BioAssay data set” (2004).
